Data reported in patent US20100222328A1, “2-CYCLOPROPYL-THIAZOLE DERIVATIVES” (priority 2007, published 2010).
Where two headings read alike, the source gives them in different places.

Tests used:
human orexin-2 receptor = target: T1, human orexin-2 receptor (Homo sapiens, UniProt O43614); experiment: Intracellular calcium measurements (FLIPR), CHO cells expressing the human orexin-2 receptor, orexin-A as agonist; format: cell-based; conditions: 3 nM orexin-A, read-out: OX2 IC50
T1 construct: expressed in transfected cells; host or cells: CHO cells (grown under G418 selection)
T1 sequence (O43614 1-444): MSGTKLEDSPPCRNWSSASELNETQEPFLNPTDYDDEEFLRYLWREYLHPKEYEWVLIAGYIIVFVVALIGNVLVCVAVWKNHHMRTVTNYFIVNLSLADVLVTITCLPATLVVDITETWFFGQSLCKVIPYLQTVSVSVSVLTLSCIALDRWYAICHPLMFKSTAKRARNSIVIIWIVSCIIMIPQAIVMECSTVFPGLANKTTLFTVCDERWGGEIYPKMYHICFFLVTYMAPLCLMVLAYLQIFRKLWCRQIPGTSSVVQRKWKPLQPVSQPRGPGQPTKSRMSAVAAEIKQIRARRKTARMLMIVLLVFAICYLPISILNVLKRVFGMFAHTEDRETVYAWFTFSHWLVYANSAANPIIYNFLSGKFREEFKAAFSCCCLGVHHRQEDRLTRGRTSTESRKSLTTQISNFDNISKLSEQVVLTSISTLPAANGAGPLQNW
Experimental: (§1) The orexin receptor antagonistic activity of the compounds of formula (I) is determined in accordance with the following experimental method.
(§2) Chinese hamster ovary (CHO) cells expressing the human orexin-1 receptor and the human orexin-2 receptor, respectively, are grown in culture medium (Ham F-12 with L-Glutamine) containing 300 μg/ml G418, 100 U/ml penicillin, 100 μg/ml streptomycin and 10% heat inactivated fetal calf serum (FCS). The cells are seeded at 20′000 cells/well into 384-well black clear bottom sterile plates (Greiner). The seeded plates are incubated overnight at 37° C. in 5% CO2.
(§3) Human orexin-A as an agonist is prepared as 1 mM stock solution in MeOH: water (1:1), diluted in HBSS containing 0.1% bovine serum albumin (BSA), NaHCO3: 0.375g/l and 20 mM HEPES for use in the assay at a final concentration of 3 nM.
(§4) Antagonists are prepared as 10 mM stock solution in DMSO, then diluted in 384-well plates using DMSO followed by a transfer of the dilutions into in HBSS containing 0.1% bovine serum albumin (BSA), NaHCO3: 0.375 g/l and 20 mM HEPES. On the day of the assay, 50 μl of staining buffer (HBSS containing 1% FCS, 20 mM HEPES, NaHCO3: 0.375 g/l, 5 mM probenecid (Sigma) and 3 μM of the fluorescent calcium indicator fluo-4 AM (1 mM stock solution in DMSO, containing 10% pluronic) is added to each well. The 384-well cell-plates are incubated for 50 min at 37° C. in 5% CO2 followed by equilibration at rt for 30-120 min before measurement.
(§5) Within the Fluorescent Imaging Plate Reader (FLIPR2 or FLIPR Tetra, Molecular Devices), antagonists are added to the plate in a volume of 10 μl/well, incubated for 10 min and finally 10 μl/well of agonist is added. Fluorescence is measured for each well at 1 second intervals, and the height of each fluorescence peak is compared to the height of the fluorescence peak induced by 3 nM orexin-A with vehicle in place of antagonist. For each antagonist, the IC50 value (the concentration of compound needed to inhibit 50% of the agonistic response) is determined. The calculated IC50 values of the compounds may fluctuate depending on the daily cellular assay performance. Fluctuations of this kind are known to those skilled in the art.

human orexin-1 receptor = target: T2, human orexin-1 receptor (Homo sapiens, UniProt O43613); experiment: Intracellular calcium measurements (FLIPR), CHO cells expressing the human orexin-1 receptor, orexin-A as agonist; format: cell-based; conditions: 3 nM orexin-A, read-out: OX1 IC50
T2 construct: expressed in transfected cells; host or cells: CHO cells (grown under G418 selection)
T2 sequence (O43613 1-425): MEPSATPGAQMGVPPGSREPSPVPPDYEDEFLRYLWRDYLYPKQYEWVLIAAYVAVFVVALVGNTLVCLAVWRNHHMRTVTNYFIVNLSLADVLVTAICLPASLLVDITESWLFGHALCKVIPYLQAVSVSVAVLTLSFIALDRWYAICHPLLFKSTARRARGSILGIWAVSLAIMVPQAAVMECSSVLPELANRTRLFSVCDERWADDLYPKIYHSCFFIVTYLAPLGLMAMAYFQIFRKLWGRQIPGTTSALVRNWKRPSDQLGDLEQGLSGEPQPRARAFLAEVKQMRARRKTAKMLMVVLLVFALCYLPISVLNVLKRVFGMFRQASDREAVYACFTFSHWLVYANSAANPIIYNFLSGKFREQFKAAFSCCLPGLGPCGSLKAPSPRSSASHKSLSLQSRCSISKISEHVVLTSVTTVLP
Experimental: as §1, §2, §3, §4, §5

Row | IC50 (human orexin-2 receptor; measured on FLIPR2) | IC50 (human orexin-1 receptor; measured on FLIPR2) | IC50 (human orexin-2 receptor; measured on FLIPR Tetra) | IC50 (human orexin-1 receptor; measured on FLIPR Tetra) | SMILES
1 | 15 nM | 23 nM |  |  | O=C(NC[C@@H]1CCCN1C(=O)c1nc(C2CC2)sc1-c1ccc(F)cc1)c1cccc2occc12 [Example 88, (S)-Benzofuran-4-carboxylic acid {1-[2-cyclopropyl-5-(4-fluoro-phenyl)-thiazole-4-carbonyl]-pyrrolidin-2-ylmethyl}-amide]
2 |  |  | 20 nM | 14 nM | Cn1nc(C(=O)NC[C@@H]2CCCCN2C(=O)c2nc(C3CC3)sc2-c2ccccc2)c2ccccc21 [Example 100, (S)-1-Methyl-1H-indazole-3-carboxylic acid [1-(2-cyclopropyl-5-phenyl-thiazole-4-carbonyl)-piperidin-2-ylmethyl]-amide]
3 |  |  | 19 nM | 15 nM | Cc1cccc(-c2sc(C3CC3)nc2C(=O)N2CCCC[C@H]2CNC(=O)c2cccc(F)c2C)c1 [Example 114, (S)—N-[1-(2-Cyclopropyl-5-m-tolyl-thiazole-4-carbonyl)-piperidin-2-ylmethyl]-3-fluoro-2-methyl-benzamide]
4 |  |  | 17 nM | 123 nM | Cn1c(C(=O)NC[C@@H]2CCCCN2C(=O)c2nc(C3CC3)sc2-c2ccccc2)cc2occc21 [Example 131, (S)-4-Methyl-4H-furo[3,2-b]pyrrole-5-carboxylic acid [1-(2-cyclopropyl-5-phenyl-thiazole-4-carbonyl)-piperidin-2-ylmethyl]-amide]
5 |  |  | 22 nM | 18 nM | Cc1cccc(-c2sc(C3CC3)nc2C(=O)N2CCCC[C@H]2CNC(=O)c2cccc3c2CCO3)c1 [Example 107, (S)-2,3-Dihydro-benzofuran-4-carboxylic acid [1-(2-cyclopropyl-5-m-tolyl-thiazole-4-carbonyl)-piperidin-2-ylmethyl]-amide]
6 | 26 nM | 7.2 nM |  |  | O=C(NC[C@@H]1CCCCN1C(=O)c1nc(C2CC2)sc1-c1cccc(C(F)(F)F)c1)c1cccc(Br)c1 [Example 71, (S)-3-Bromo-N-{1-[2-cyclopropyl-5-(3-trifluoromethyl-phenyl)-thiazole-4-carbonyl]-piperidin-2-ylmethyl}-benzamide]
7 |  |  | 4.5 nM | 3.6 nM | O=C(NC[C@@H]1CCCCN1C(=O)c1nc(C2CC2)sc1-c1ccccc1)c1cnc2sccn12 [Example 96, (S)-Imidazo[2,1-b]thiazole-5-carboxylic acid [1-(2-cyclopropyl-5-phenyl-thiazole-4-carbonyl)-piperidin-2-ylmethyl]-amide]

Continued, molecule first:

Row | SMILES | IC50 (human orexin-2 receptor; measured on FLIPR2) | IC50 (human orexin-1 receptor; measured on FLIPR2) | IC50 (human orexin-2 receptor; measured on FLIPR Tetra) | IC50 (human orexin-1 receptor; measured on FLIPR Tetra)
8 | Cc1cccc(C(=O)NC[C@@H]2CCCCN2C(=O)c2nc(C3CC3)sc2-c2ccccc2F)c1 [Example 1, (S)—N-{1-[2-Cyclopropyl-5-(2-fluoro-phenyl)-thiazole-4-carbonyl]-piperidin-2-ylmethyl}-3-methyl-benzamide] | 16 nM | 19 nM |  | 
9 | Cc1nc2sccn2c1C(=O)NC[C@@H]1CCCCN1C(=O)c1nc(C2CC2)sc1-c1ccccc1F [Example 10, (S)-6-Methyl-imidazo[2,1-b]thiazole-5-carboxylic acid {1-[2-cyclopropyl-5-(2-fluoro-phenyl)-thiazole-4-carbonyl]-piperidin-2-ylmethyl}-amide] | 3 nM | 1.8 nM |  | 
10 | O=C(NC[C@@H]1CCCCN1C(=O)c1nc(C2CC2)sc1-c1cccc(Cl)c1)c1noc2ccccc12 [Example 68, (S)-Benzo[d]isoxazole-3-carboxylic acid {1-[5-(3-chloro-phenyl)-2-cyclopropyl-thiazole-4-carbonyl]-piperidin-2-ylmethyl}-amide] | 11 nM | 19 nM |  | 
11 | Cc1cccc(-c2sc(C3CC3)nc2C(=O)N2CCCC[C@H]2CNC(=O)c2cc3occc3n2C)c1 [Example 51, (S)-4-Methyl-4H-furo[3,2-b]pyrrole-5-carboxylic acid [1-(2-cyclopropyl-5-m-tolyl-thiazole-4-carbonyl)-piperidin-2-ylmethyl]-amide] | 15 nM | 25 nM |  | 
12 | Cc1ccc(-c2sc(C3CC3)nc2C(=O)N2CCCC[C@H]2CNC(=O)c2c(C)nc3sccn23)cc1 [Example 31, (S)-6-Methyl-imidazo[2,1-b]thiazole-5-carboxylic acid [1-(2-cyclopropyl-5-p-tolyl-thiazole-4-carbonyl)-piperidin-2-ylmethyl]-amide] | 8.6 nM | 2.2 nM |  | 
13 | O=C(NC[C@@H]1CCCCN1C(=O)c1nc(C2CC2)sc1-c1ccccc1F)c1cccc2cccnc12 [Example 5, (S)-Quinoline-8-carboxylic acid {1-[2-cyclopropyl-5-(2-fluoro-phenyl)-thiazole-4-carbonyl]-piperidin-2-ylmethyl}-amide] | 7.7 nM | 5.1 nM |  | 
